For series [1], the target named is T1, human norepinephrine transporter (Homo sapiens, UniProt P23975).
T1 construct: host or cells: HEK-293
Kind of series: hNET receptor binding ([125I]-RTI-55, membranes of transfected HEK-293 cells). To be noted: 50 pM [125I]-RTI-55, 90 min room temperature; IC50 converted by Cheng-Prusoff. In outline: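 Competition binding on membranes from HEK-293 cells transfected with human NET, using 50 pM [125I]-RTI-55 in Krebs-HEPES pH 7.4, drug 10^−5 to 10^−12 M in duplicate, 90 min at room temperature, filtration. Nonspecific binding defined with 10 μM desipramine; IC50 converted to Ki by Cheng-Prusoff.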

Series [2] has as its target T2, human serotonin transporter (Homo sapiens, UniProt P31645).
T2 construct: host or cells: HEK-293
Kind of series: hSERT receptor binding ([125I]-RTI-55, membranes of transfected HEK-293 cells). To be noted: 50 pM [125I]-RTI-55, 90 min room temperature; IC50 converted by Cheng-Prusoff. The method, boiled down:
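Membranes of HEK-293 cells expressing human SERT incubated 90 min at room temperature with 50 pM [125I]-RTI-55 and compound (10^−5 to 10^−12 M) in Krebs-HEPES, pH 7.4. Nonspecific binding defined with 10 μM citalopram; IC50 converted to Ki by Cheng-Prusoff.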

As usually defined, the melting point is the temperature, or range, at which the solid turns liquid. The term Ki denotes the equilibrium dissociation constant of an inhibitor or competing ligand from its target. A lower Ki goes with a stronger hold on the target.

T1 sequence (P23975 whole entry): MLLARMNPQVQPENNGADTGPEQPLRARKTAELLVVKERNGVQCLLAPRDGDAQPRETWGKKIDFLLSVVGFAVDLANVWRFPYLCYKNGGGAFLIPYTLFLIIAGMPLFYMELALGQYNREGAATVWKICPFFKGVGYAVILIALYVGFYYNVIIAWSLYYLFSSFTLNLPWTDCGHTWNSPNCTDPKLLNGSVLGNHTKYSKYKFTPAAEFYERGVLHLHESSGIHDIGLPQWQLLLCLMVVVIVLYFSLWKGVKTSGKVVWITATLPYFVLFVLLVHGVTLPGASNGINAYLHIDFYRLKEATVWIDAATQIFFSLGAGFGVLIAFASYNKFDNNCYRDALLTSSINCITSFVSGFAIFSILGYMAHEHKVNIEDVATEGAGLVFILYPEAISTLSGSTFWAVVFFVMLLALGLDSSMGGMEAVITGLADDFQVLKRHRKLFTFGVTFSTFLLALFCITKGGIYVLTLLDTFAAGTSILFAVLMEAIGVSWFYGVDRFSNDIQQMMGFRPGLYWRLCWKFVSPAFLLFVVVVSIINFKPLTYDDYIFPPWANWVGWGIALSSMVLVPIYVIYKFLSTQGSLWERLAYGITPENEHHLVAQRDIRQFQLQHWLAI
T2 sequence (P31645 whole entry): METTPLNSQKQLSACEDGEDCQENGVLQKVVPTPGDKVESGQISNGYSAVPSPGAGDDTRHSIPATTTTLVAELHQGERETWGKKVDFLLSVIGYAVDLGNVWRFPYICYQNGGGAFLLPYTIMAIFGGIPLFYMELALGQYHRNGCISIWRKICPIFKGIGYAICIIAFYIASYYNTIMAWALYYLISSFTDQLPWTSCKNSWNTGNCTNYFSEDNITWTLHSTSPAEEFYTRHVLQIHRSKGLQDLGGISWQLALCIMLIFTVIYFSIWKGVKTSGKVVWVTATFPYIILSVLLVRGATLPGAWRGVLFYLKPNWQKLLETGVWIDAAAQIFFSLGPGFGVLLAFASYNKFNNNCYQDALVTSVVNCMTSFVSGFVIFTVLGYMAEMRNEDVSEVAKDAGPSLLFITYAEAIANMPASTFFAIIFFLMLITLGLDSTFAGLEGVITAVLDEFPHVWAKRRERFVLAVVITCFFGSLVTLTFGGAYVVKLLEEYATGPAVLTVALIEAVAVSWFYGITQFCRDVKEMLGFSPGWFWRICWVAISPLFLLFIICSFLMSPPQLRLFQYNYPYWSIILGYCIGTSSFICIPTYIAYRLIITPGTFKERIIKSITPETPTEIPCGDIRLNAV

Take `Cl.NC1CCN(c2nc(-c3ccccc3)c3ccccc3n2)CC1` [Example 12, 1-(4-Phenyl-quinazolin-2-yl)-piperidin-4-ylamine hydrochloride]: the melting point is more than 300 °C. Moreover, the affinity in series [1], expressed as Ki, was 95.5 nM.

The molecule `Cl.N[C@H]1CCN(c2nc(-c3ccccc3)c3ccccc3n2)C1` [Example 14, (S)-(+)-1-(4-Phenyl-quinazolin-2-yl)-pyrrolidin-3-ylamine hydrochloride] displayed a melting point of 274 to 275 °C. In addition, the Ki in series [1] worked out at 3.7 nM.

With `C[C@H]1CNCCN1c1nc(-c2ccccc2)c2ccccc2n1.Cl` [Example 15, (S)-(+)-2-(2-Methyl-piperazin-1-yl)-4-phenyl-quinazoline hydrochloride], the melting point lay within 154 to 157 °C. The molecule also registered an inhibitory constant (Ki) in series [1] of 4.6 nM.

The molecule `Cl.N[C@@H]1CCN(c2nc(-c3ccccc3)c3ccccc3n2)C1` [Example 16, (R)-(−)1-(4-Phenyl-quinazolin-2-yl)-pyrrolidin-3-yl-amine hydrochloride] gave a melting point of 261 to 265 °C. Besides, affinity in series [1] was put at a Ki of 31 nM.

Molecule `CN1CCN(c2nc(-c3ccccc3F)c3ccccc3n2)CC1` [Example 18, 4-(2-Fluoro-phenyl)-2-(4-methyl-piperazin-1-yl)-quinazoline] came in with a melting point of 123 to 124 °C. The same molecule returned a Ki in series [1] of 12 nM.

As for `Cl.Fc1ccccc1-c1nc(N2CCNCC2)nc2ccccc12` [Example 20, 4-(2-Fluoro-phenyl)-2-piperazin-1-yl-quinazoline hydrochloride], the melting point was 276 to 277 °C. Further, the Ki in series [1] was 1.7 nM. The molecule further had a Ki in series [2] of 12 nM.

The molecule `Cl.Fc1ccccc1-c1nc(N2CCCNCC2)nc2ccccc12` [Example 21, 2-[1,4]Diazepan-1-yl-4-(2-fluoro-phenyl)-quinazoline hydrochloride] showed a melting point of 190 to 192 °C. Further, the affinity in series [1] corresponds to a Ki of 3.7 nM.

`CN1CCN(c2nc(-c3ccc(F)cc3)c3ccccc3n2)CC1` [Example 25, 4-(4-Fluoro-phenyl)-2-(4-methyl-piperazin-1-yl)-quinazoline]: the melting point lay within 130 to 131 °C. In series [1], this molecule returned a Ki of 82 nM.

`CN1CCN(c2nc(-c3cccc(F)c3)c3ccccc3n2)CC1` [Example 26, 4-(3-Fluoro-phenyl)-2-(4-methyl-piperazin-1-yl)-quinazoline] yielded a melting point of 134 to 135 °C. In series [1], this molecule registered a Ki of 34.9 nM.

As for `CN1CCN(c2nc(-c3cccs3)c3ccccc3n2)CC1.O=C(O)C(=O)O` [Example 27, 2-(4-Methyl-piperazin-1-yl)-4-thiophen-2-yl-quinazoline oxalate], the melting point fell in the range of 216 to 217 °C. Moreover, the inhibition constant (Ki) in series [1] was 67.4 nM.

In turn, `C[C@@H]1CNCCN1c1nc(-c2ccccc2)c2ccccc2n1.Cl` [Example 30, (R)-(−)-2-(2-Methyl-piperazin-1-yl)-4-phenyl-quinazoline hydrochloride] showed a melting point of 150 to 161 °C. The Ki in series [1] worked out at 5.5 nM.

In the case of `Cl.c1ccc(-c2nc(N3CC4CCCC(C3)N4)nc3ccccc23)cc1` [Example 32, 2-(3,9-Diaza-bicyclo[3.3.1]non-3-yl)-4-phenyl-quinazoline hydrochloride], the melting point was more than 300 °C. Besides, in series [1], the Ki was 38.5 nM.

As to `Cl.N[C@H]1CCN(c2nc(-c3ccccc3F)c3ccccc3n2)C1` [Example 34, (S)-(+)-1-[4-(2-Fluoro-phenyl)-quinazolin-2-yl]-pyrrolidin-3-ylamine hydrochloride], the melting point is 285 to 287 °C. In addition, in series [1], the Ki was determined as 3.8 nM.

`Cl.Fc1cccc(Cl)c1-c1nc(N2CCNCC2)nc2ccccc12` [Example 36, 4-(2-Chloro-6-fluoro-phenyl)-2-piperazin-1-yl-quinazoline hydrochloride] returned a melting point of 266 to 268 °C. The molecule also registered a Ki in series [1] of 4 nM.

Turning to `Cl.Fc1cccc(-c2nc(N3CCNCC3)nc3ccccc23)c1F` [Example 37, 4-(2,3-Difluoro-phenyl)-2-piperazin-1-yl-quinazoline hydrochloride], the melting point was 273 to 276 °C. In series [1], this molecule returned a Ki of 3 nM.

`Cl.Fc1ccccc1-c1nc(N2CC3CNCC3C2)nc2ccccc12` (stereo not shown) [Example 39, 4-(2-Fluoro-phenyl)-2-(hexahydro-pyrrolo[3,4-c]pyrrol-2-yl)-quinazoline hydrochloride] showed a melting point of 270 to 278 °C. In addition, the affinity in series [1] corresponds to a Ki of 41 nM.

`Cl.N[C@H]1CCCN(c2nc(-c3ccccc3F)c3ccccc3n2)C1` [Example 40, (S)-(+)-1-[4-(2-Fluoro-phenyl)-quinazolin-2-yl]-piperidin-3-ylamine hydrochloride]: the melting point was in the range of 288 to 289 °C. This molecule also yielded a Ki in series [1] of 18 nM.

`COC(=O)C1(c2nc(-c3ccccc3)c3ccccc3n2)CCNCC1.Cl` [Example 50, 4-(4-Phenyl-quinazolin-2-yl)piperidine-4-carboxylic acid methyl ester hydrochloride] had a melting point of 227 to 228 °C. The molecule further registered a Ki in series [1] of 9.8 nM.

Consider `COC(=O)C1(c2nc(-c3ccccc3F)c3ccccc3n2)CCNCC1.Cl` [Example 51, 4-[4-(2-Fluoro-phenyl)-quinazolin-2-yl]-piperidine-4-carboxylic acid methyl ester hydrochloride], for which the melting point was in the range of 210 to 211 °C. The Ki in series [1] worked out at 15.1 nM.

`COC(=O)C1(c2nc(-c3ccccc3)c3ccccc3n2)CCCNC1.Cl` (stereo not shown) [Example 52, 3-(4-Phenyl-quinazolin-2-yl)-piperidine-3-carboxylic acid methyl ester hydrochloride] had a melting point of 143 to 145 °C. The same molecule registered a Ki in series [1] of 53.4 nM.

For `CC1CN(c2nc(-c3ccccc3)c3ccccc3n2)CCN1` (stereo not shown) [Example 54, 2-(3-Methyl-piperazin-1-yl)-4-phenyl-quinazoline], the melting point lay within 107 to 108 °C. This molecule returned a Ki in series [1] of 41 nM.

Molecule `c1ccc(-c2nc(N3C4CCC3CNC4)nc3ccccc23)cc1` [Example 56, 2-(3,8-Diaza-bicyclo[3.2.1]oct-8-yl)-4-phenyl-quinazoline] gave a melting point of 278 to 280 °C. The molecule further displayed a Ki in series [1] of 5 nM.

`Fc1cccc(-c2nc(N3CCCNCC3)nc3ccccc23)c1F` [Example 57, 2-[1,4]Diazepan-1-yl-4-(2,3-difluoro-phenyl)-quinazoline] came in with a melting point of 203 to 206 °C. The molecule further yielded a Ki in series [1] of 4 nM.

In turn, `Fc1ccc2c(-c3ccccc3F)nc(N3CCNCC3)nc2c1` [Example 59, 7-Fluoro-4-(2-fluoro-phenyl)-2-piperazin-1-yl-quinazoline] displayed a melting point of 147 to 148 °C. The molecule further displayed a Ki in series [1] of 2.7 nM.

For the origin of these results see patent US20050096327A1, “Novel norepinephrine reuptake inhibitors for the treatment of central nervous system disorders” (priority 2003, published 2005).
